Laboratory results from patent US11744899B2, “Pharmaceutical composition containing a hyaluronic acid derivative” (SEIKAGAKU CORPORATION, priority 2018, dated 2023).

What was measured:
[1] = Storage test (1-4) using 10 mM acetate buffer solution (pH 5.1); format: physicochemical; conditions: additional component 5 wt %; 1.0 wt % hyaluronic acid derivative, 10 mM acetate buffer pH 5.1, 1 week at 60° C., HPLC; control solution = 1
Protocol: An acetic acid aqueous solution having an acetic acid concentration of 15 mM and a sodium acetate aqueous solution having an acetate concentration of 15 mM were mixed at a ratio (volume ratio) of 1:3, whereby an acetate buffer solution was prepared. The pH of the acetate buffer solution after preparation was 5.1. In addition, an acetate buffer solution having an acetic acid concentration of 45 mM and a pH of 5.1 was prepared in a similar manner. […]
(§1) Each of the test samples was stored for 1 week in a thermostat chamber at 60° C., and thereafter, the accumulation amount of each of diclofenac and diclofenac lactam was measured by HPLC.
(§2) The amount of diclofenac and the amount of diclofenac lactam were calculated as relative values when each of the amount of diclofenac and the amount of diclofenac lactam present in the control solution (1 wt % hyaluronic acid derivative solution) after being stored for 1 week at 60° C. was assumed to be 1.
Each of the prepared various test samples was filled in a screw vial (AS ONE Corporation, Cat No. 3-1599-01) and left to stand at 60° C. for 1 week. The amount of diclofenac and the amount of diclofenac lactam present in the solution after being left to stand were quantitatively analyzed by HPLC. […]
(§3) The elution time of each of diclofenac and diclofenac lactam was determined by performing measurement in advance using a standard substance.

[2] = Evaluation of filterability of aqueous composition (Vmax); format: physicochemical; conditions: 1.0 wt % hyaluronic acid derivative, acetate buffer pH 5.1, 0.22 μm PVDF membrane, 0.6 MPa, 70° C.
Protocol: The calculation of the maximum treatment amount (Vmax) is more specifically performed as follows. That is, the aqueous composition at a liquid temperature of 70° C. is filtered under a pressure of 0.6 MPa using a polyvinylidene fluoride filtration membrane with a pore size of 0.22 μm. At that time, the total filtration amount per effective filtration area (V) of the filtration membrane is measured every 30 seconds until the flow rate (Q) becomes 1/10 or less of the flow rate at the start of filtration. By plotting the measurement results with the filtration time (t) along the horizontal axis and t/V along the vertical axis, the following formula A is calculated within a range of the measurement point where the transition of t/V is stable. The maximum treatment amount (Vmax) is determined from the reciprocal of the slope a of the calculation formula A (that is, the following calculation formula B). Note that the flow rate (Q) is the filtration amount per unit time (that is, Q=dV/dt).
The hyaluronic acid derivative prepared above and the 15 mM acetate buffer solution (pH 5.1) prepared above were mixed and stirred, and then, defoamed by being left to stand, whereby a 1.5 wt % hyaluronic acid derivative solution was prepared.
150.0 g of the 1.5 wt % hyaluronic acid derivative solution prepared above and 75.0 g of an additional component aqueous solution were mixed, whereby a test sample (final concentration of hyaluronic acid derivative: 1.0 wt %) was prepared.
In addition, a control solution in which 75.0 g of WFI was mixed in place of the additional component aqueous solution was also prepared.
To a stainless steel pressure filter holder in which a polyvinylidene fluoride (PVDF) membrane (47 mm in diameter, effective filtration area: 13.8 cm^2, manufactured by Merck & Co.) with a pore size of 0.22 μm was set, 200 mL of the test sample prepared above was added and pressure was applied at 0.6 MPa at 70° C. The amount of liquid passing through the filter was weighed every 30 seconds, and the maximum treatment amount (Vmax) was calculated from the relationship between the elapsed time and the total filtration amount.

[3] = Storage test (1-3) using 30 mM acetate buffer solution (pH 5.1); format: physicochemical; conditions: 1.0 wt % hyaluronic acid derivative, 30 mM acetate buffer pH 5.1, 1 week at 60° C., HPLC, control solution = 1
Protocol: An acetic acid aqueous solution having an acetic acid concentration of 15 mM and a sodium acetate aqueous solution having an acetate concentration of 15 mM were mixed at a ratio (volume ratio) of 1:3, whereby an acetate buffer solution was prepared. The pH of the acetate buffer solution after preparation was 5.1. In addition, an acetate buffer solution having an acetic acid concentration of 45 mM and a pH of 5.1 was prepared in a similar manner.
(§4) 1.5 g of the hyaluronic acid derivative of the above Synthesis Example and 98.5 g of each of the various buffer solutions prepared above were mixed and stirred for 2 hours in a water bath at 70° C., whereby a 1.5 wt % hyaluronic acid derivative solution was prepared.
(§5) Additional component aqueous solutions to be added to the hyaluronic acid derivative solution were prepared using various additional components and WFI so that the concentration of each component is three times as high as the final concentration (wt %).
(§6) 2.0 g of the 1.5 wt % hyaluronic acid derivative solution prepared above and 1.0 g of the additional component aqueous solution were mixed, whereby a test sample (final concentration of hyaluronic acid derivative: 1.0 wt %) was prepared.
(§7) The test samples prepared above containing each of the various buffer solutions (50 mM phosphate buffer solution, 10 mM citrate buffer solution, 10 mM acetate buffer solution, or 30 mM acetate buffer solution) were subjected to a storage test.
as §1, §2
(§8) Each of the prepared various test samples was filled in a screw vial (AS ONE Corporation, Cat No. 3-1599-01) and left to stand at 60° C. for 1 week. The amount of diclofenac and the amount of diclofenac lactam present in the solution after being left to stand were quantitatively analyzed by HPLC.
(§9) The HPLC conditions are as follows.
as §3
As the additional component, propyl gallate (1.5 wt %), any one of lactic acid anhydrous (1.5 wt %), hydroxypropyl cellulose (1.5 wt %), starch (1.5 wt %), dextran (5 wt %), sucrose (5 wt %), sodium saccharinate dihydrate (5 wt %), glycine (5 wt %), sodium aspartate (1.5 wt %), L-leucine (1.5 wt %), L-phenylalanine (5 wt %), L-serine (5 wt %), D-mannitol (1.5 wt %), D-sorbitol (5 wt %), hydroxypropyl-β-cyclodextrin (3 wt %, 5 wt %, 10 wt %, or 15 wt %), and ethanol (5 wt %, 10 wt %, 20 wt %, or 26.3 wt %) was used.

[4] = Storage test (1-2) using 10 mM citrate buffer solution (pH 5.1); format: physicochemical; conditions: after storage, 1.0 wt % hyaluronic acid derivative, 10 mM citrate buffer pH 5.1, 1 week at 60° C.
Protocol: A citric acid aqueous solution having a citric acid concentration of 15 mM and a trisodium citrate aqueous solution having a citrate concentration of 15 mM were mixed at a ratio (volume ratio) of 27:37, whereby a citrate buffer solution was prepared. The pH of the citrate buffer solution after preparation was 5.1.
as §4, §5, §6, §7, §1, §2, §8, §9, §3
As the additional component, creatinine (1 wt %), sodium deoxycholate (5 wt %), 1,2,3-butanetriol (5 wt %), PEG 400 (6.3 wt % or 16.5 wt %), PEG 600 (10 wt %), PEG 4000 (10 wt %), PEG 6000 (10 wt %), SDS (5 wt %), Triton X-100 (5 wt %), ethanol (26 wt %), octyl glucoside (5 wt %), glucuronolactone (0.1 wt %), chlorogenic acid (0.1 wt %), propylene glycol (10 wt %), polysorbate 20 (5 wt %), or polyvinylpyrrolidone (5 wt %) was used.
Similarly, as the additional component, additional components of a two-component system of PEG 3350 (10.6 wt %) and polysorbate 80 (3 wt %), or PEG 3350 (6.0 wt %) and hydroxypropyl-β-cyclodextrin (10 wt %), or additional components of a three-component system of PEG 3350 (5.5 wt %), polysorbate 80 (1 wt %) and hydroxypropyl-β-cyclodextrin (10 wt %) were used.

[5] = Storage test (1-1) using 50 mM phosphate buffer solution (pH 6.5); format: physicochemical; conditions: additional component 5 wt %; 1.0 wt % hyaluronic acid derivative, 50 mM phosphate buffer pH 6.5, 1 week at 60° C., HPLC; control solution = 1
Protocol: as §4, §5, §6, §7, §1, §2, §8, §9, §3

[6] = target: T1, Cox-2 (Homo sapiens, UniProt P35354); experiment: Cox-2 inhibitory activity; format: biochemical; conditions: ratio to diclofenac
T1 sequence (P35354 18-604): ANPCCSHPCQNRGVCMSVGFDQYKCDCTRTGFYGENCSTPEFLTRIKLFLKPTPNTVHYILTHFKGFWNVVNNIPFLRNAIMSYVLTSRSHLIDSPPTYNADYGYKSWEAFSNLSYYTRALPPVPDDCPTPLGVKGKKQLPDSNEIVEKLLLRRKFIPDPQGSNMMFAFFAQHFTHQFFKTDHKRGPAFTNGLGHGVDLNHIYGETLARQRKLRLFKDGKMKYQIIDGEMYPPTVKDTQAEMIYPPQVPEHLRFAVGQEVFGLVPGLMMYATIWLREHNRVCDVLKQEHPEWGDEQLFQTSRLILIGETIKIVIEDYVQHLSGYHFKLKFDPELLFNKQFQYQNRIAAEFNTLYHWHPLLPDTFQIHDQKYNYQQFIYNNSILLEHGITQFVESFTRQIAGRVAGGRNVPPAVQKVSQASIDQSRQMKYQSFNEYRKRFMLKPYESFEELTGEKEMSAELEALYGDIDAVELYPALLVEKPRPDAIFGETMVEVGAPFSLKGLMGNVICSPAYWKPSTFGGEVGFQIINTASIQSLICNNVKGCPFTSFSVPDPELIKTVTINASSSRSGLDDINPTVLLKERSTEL

hydroxyethyl-β-cyclodextrin [HE-β-CD]
Dic amount: the relative value of the amount of diclofenac [1]: 0.63 | Lac amount: the relative value of the amount of diclofenac lactam [1]: 0.34

hydroxypropyl-β-cyclodextrin [HP-β-CD]
Maximum treatment amount ([2]; additional component 5 wt %): 8.3 g/cm^2 | Maximum treatment amount ([2]; additional component 10 wt %): 10.4 g/cm^2 | Dic amount: the relative value of the amount of diclofenac ([3]; additional component 3 wt %): 0.62 | Lac amount: the relative value of the amount of diclofenac lactam ([3]; additional component 3 wt %): 0.45 | Dic amount: the relative value of the amount of diclofenac ([3]; additional component 5 wt %): 0.54 | Lac amount: the relative value of the amount of diclofenac lactam ([3]; additional component 5 wt %): 0.34 | Dic amount: the relative value of the amount of diclofenac ([3]; additional component 10 wt %): 0.44 | Lac amount: the relative value of the amount of diclofenac lactam ([3]; additional component 10 wt %): 0.23 | Dic amount: the relative value of the amount of diclofenac ([3]; additional component 15 wt %): 0.36 | Lac amount: the relative value of the amount of diclofenac lactam ([3]; additional component 15 wt %): 0.17

polysorbate 20
Solution properties ([4]; additional component 5 wt %): colorless and clear

octylphenol ethoxylate [Triton X-100]
Solution properties ([4]; additional component 5 wt %): colorless and clear

COc1ccc(O)c(C(C)(C)C)c1 [butylhydroxyanisole]
Dic amount: the relative value of the amount of diclofenac [5]: 0.99

OCC(O)CO [glycerin]
Dic amount: the relative value of the amount of diclofenac [5]: 1.02

O=C(/C=C/c1ccc(O)c(O)c1)O[C@@H]1C[C@](O)(C(=O)O)C[C@@H](O)[C@H]1O [chlorogenic acid]
Solution properties ([4]; additional component 0.1 wt %): light yellow and clear

OC[C@H]1OC=C[C@@H](O)[C@@H]1O [D-glucal]
Dic amount: the relative value of the amount of diclofenac [5]: 1.15

O=C[C@H](O)[C@H]1OC(=O)[C@@H](O)[C@H]1O [glucuronolactone]
Solution properties ([4]; additional component 0.1 wt %): slightly yellow and clear

O=C1Cc2ccccc2N1c1c(Cl)cccc1Cl [diclofenac lactam]
Cox-2 inhibitory activity relative to that of diclofenac [6]: about 1/100

CCO [ethanol]
Maximum treatment amount ([2]; additional component 5 wt %): 10.3 g/cm^2 | Maximum treatment amount ([2]; additional component 10 wt %): 8.2 g/cm^2 | Solution properties ([4]; additional component 26 wt %): colorless and clear

CCCCCCCCCCCCOS(=O)(=O)[O-].[Na+] [SDS, sodium dodecyl sulfate]
Solution properties ([4]; additional component 5 wt %): colorless and clear

CCCCCCCCO[C@@H]1O[C@H](CO)[C@@H](O)[C@H](O)[C@H]1O [octyl glucoside]
Solution properties ([4]; additional component 5 wt %): colorless and clear

CC(O)CO (centres unmarked) [propylene glycol]
Solution properties ([4]; additional component 10 wt %): colorless and slightly turbid
